Structures are written as SMILES.

Holding throughout (type): in vivo
The subject of test [1] is Alopecurus myosuroides (ALOMY). The test can be described thus: Test 1 glasshouse assay, pre-emergence herbicidal activity. Particulars: 312 h, visual evaluation after 13 days, read-out: Percentage phytotoxicity ALOMY. In outline:
(§1)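 Pre-emergence spray 1 d post-sowing; acetone/water 50:50, 0.5% Tween 20 vehicle. Glasshouse 24/16° C, 14 h light, 65% RH. Visual % phytotoxicity at 13 d, 100% = total damage, 0% = none.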

Test [2] relates to Amaranthus retroflexus (AMARE). The description is as above. Particulars: 312 h, visual evaluation after 13 days, read-out: Percentage phytotoxicity AMARE. In outline:
as §1

Test [3] concerns Echinochloa crus-galli (ECHCG). The test is described as above. Particulars: 312 h, visual evaluation after 13 days, read-out: Percentage phytotoxicity ECHCG. In outline: as §1
The test system of test [4] is Lolium perenne (LOLPE). The test can be described thus: Test 2 glasshouse assay (IF50 formulation, X-77), pre-emergence herbicidal activity. Particulars: 480 h, 20DAA, read-out: Percentage phytotoxicity LOLPE. The method, then:
(§2) Seeds of a variety of monocotyledonous and dicotyledonous test plants are sown in standard soil in pots. The plants are cultivated for one day (for pre-emergence) or for about 12 days (for post-emergence) under controlled conditions in a glasshouse (warm climate species at 24/18° C., cool climate species at 20/16° C., both at day/night; 16 hours light; 65% humidity).
(§3) An “instant formulation”, known as the “IF50”, containing 50 g/liter (i.e. 5% w/v) of the “technical” (i.e. unformulated) active ingredient is prepared by dissolving the active ingredient in a mixture of organic solvents and emulsifier, details of which are provided in the Table below. This IF50 is then mixed with a small, variable amount of acetone to aid dissolution, before addition of a 0.2% v/v aqueous solution of the adjuvant X-77 (which is a mixture of alkyl aryl polyoxyethylene glycols and free fatty acids in isopropanol, CAS Registry number 11097-66-8), as the aqueous diluent, to form an aqueous spray solution which contains a predetermined concentration of the active ingredient (which varies depending on the application rate of the active ingredient to the plants) and 0.2% v/v of the adjuvant X-77. This aqueous spray solution is then sprayed onto the plants, after one day's cultivation (for pre-emergence), or after about 12 days' cultivation (range=10-13 days) (for post-emergence).
(§4) The test plants are then grown on, in a glasshouse (greenhouse) under controlled conditions (warm climate species at 24/18° C., cool climate species at 20/16° C., both at day/night; 16 hours light; 65% humidity) and are watered twice daily. 15 days after application of the test herbicide (15DAA) (for post-emergence), and 20 days after application of the test herbicide (20DAA) (for pre-emergence), the test plants are evaluated visually, and an assessed percentage phytotoxicity score is given for each herbicidal application on each plant species (with 100%=total damage to plant; 0%=no damage to plant).
Cool climate (“cool season”) grassy monocotyledonous weeds: Alopecurus myosuroides (ALOMY), Avena fatua (AVEFA), Lolium perenne (LOLPE).

In test [5] the test system is Setaria faberi (SETFA). The test can be described thus: Test 2 glasshouse assay (IF50 formulation, X-77), post-emergence herbicidal activity. Particulars: 360 h, 15 DAA, visual score, read-out: Post-emergence herbicidal activity (percentage phytotoxicity) SETFA; for pest or weed control at 30 g/ha: application rate 30 g/ha; for pest or weed control at 125 g/ha: application rate 125 g/ha. The method, then:
as §2, §3, §4
(§5) Warm climate (“warm season”) grassy monocotyledonous weeds: Setaria faberi (SETFA), Panicum miliaceum (PANMI), Sorghum vulgare Pers. (SORVU) (or Sorghum bicolor (L) Moench ssp. Bicolor), Digitaria sanguinalis (DIGSA), Echinochloa crus-galli (ECHCG), and Brachiaria plantaginea (BRAPL).

Test [6] has as its system Digitaria sanguinalis (DIGSA). The description is as above. Particulars: 360 h, 15 DAA, visual score, read-out: Post-emergence herbicidal activity (percentage phytotoxicity) DIGSA; for pest or weed control at 30 g/ha: application rate 30 g/ha; for pest or weed control at 125 g/ha: application rate 125 g/ha. The method, then:
as §2, §3, §4, §5

Test [7] concerns Brachiaria plantaginea (BRAPL). The description is as above. Particulars: Urochloa plantaginea, 360 h, 15 DAA, visual score, read-out: Post-emergence herbicidal activity (percentage phytotoxicity) BRAPL; for pest or weed control at 30 g/ha: application rate 30 g/ha; for pest or weed control at 125 g/ha: application rate 125 g/ha. The method, then: as §2, §3, §4, §5
The subject of test [8] is Panicum miliaceum (PANMI). Described as above. Particulars: 360 h, 15 DAA, visual score, read-out: Post-emergence herbicidal activity (percentage phytotoxicity) PANMI; for pest or weed control at 30 g/ha: application rate 30 g/ha; for pest or weed control at 125 g/ha: application rate 125 g/ha. The protocol:
as §2, §3, §4, §5

Test [9] deals with Echinochloa crus-galli (ECHCG). Described as above. Particulars: 360 h, 15 DAA, visual score, read-out: Post-emergence herbicidal activity (percentage phytotoxicity) ECHCG; for pest or weed control at 30 g/ha: application rate 30 g/ha; for pest or weed control at 125 g/ha: application rate 125 g/ha. The protocol: as §2, §3, §4, §5
Test [10] has as its system Sorghum vulgare Pers. (SORVU). The description is as above. Particulars: Sorghum bicolor, 360 h, 15 DAA, visual score, read-out: Post-emergence herbicidal activity (percentage phytotoxicity) SORVU; for pest or weed control at 30 g/ha: application rate 30 g/ha; for pest or weed control at 125 g/ha: application rate 125 g/ha. The method, then: as §2, §3, §4, §5
For test [11], the system named is Setaria faberi (SETFA). The test can be described thus: Test 2 glasshouse assay (IF50 formulation, X-77), pre-emergence herbicidal activity. Particulars: 480 h, 20DAA, read-out: Percentage phytotoxicity SETFA. In outline:
(§6)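 Spray applied one day after sowing (pre-emergence) or after about 12 days (post-emergence), using 50 g/L IF50 diluted into aqueous 0.2% v/v X-77. Pots kept at 24/18 °C day/night, 16 h light, 65% humidity, watered twice daily, and rated visually for percent damage at 20DAA (pre) or 15DAA (post).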

The test system of test [12] is Brachiaria plantaginea (BRAPL). The test is described as above. Particulars: Urochloa plantaginea, 480 h, 20DAA, read-out: Percentage phytotoxicity BRAPL. The essentials:
as §6

In test [13] the test system is Panicum miliaceum (PANMI). Described as above. Particulars: 480 h, 20DAA, read-out: Percentage phytotoxicity PANMI. The essentials: as §6
Test [14] deals with Echinochloa crus-galli (ECHCG). The description is as above. Particulars: 480 h, 20DAA, read-out: Percentage phytotoxicity ECHCG. The essentials:
as §6

Consider `C#CCC1CC(OC(C)=O)=C(c2c(C)cc(-c3ccc(F)cc3)cc2C)C1=O` (centres unmarked) [Compound A45], for which the pest or weed control at 250 g/ha was found to be 100% in test [1], 90% in test [2] and 100% in [3]. For the same compound, the pest or weed control at 125 g/ha in [4] came out at 90%; in [5], 100%; in [6], 100%; in test [7], 100%; in test [8], 100%; in [9], 100%. The pest or weed control at 125 g/ha in [10] came out at 100%; in test [11], 90%; in [12] it was 90%; in test [13], 100%; in [14] it was 80%. Besides, the pest or weed control at 30 g/ha stood at 90% in [5]; 100% in [6]; 90% in test [7]; 100% in [8]; 100% in test [9]; 70% in test [10].
Take `C#CCC1C(=O)C(c2c(C)cc(C)cc2C)C(=O)C1CC#C` (centres unmarked) [Compound A42]: the results for the pest or weed control at 250 g/ha in test [1] and in test [3] were 100% and 80%, respectively. The pest or weed control at 500 g/ha in test [4] (500 g/ha), in test [5] (application rate 500 g/ha), in test [6] (application rate 500 g/ha), in test [7] (application rate 500 g/ha), in [8] (application rate 500 g/ha) and in test [9] (application rate 500 g/ha) was 100% in each case. In addition, the pest or weed control at 500 g/ha in test [10] (application rate 500 g/ha) is 100%; in test [11] (500 g/ha) it was 80%; in [12] (500 g/ha), 100%; in test [13] (500 g/ha), 100%; in [14] (500 g/ha), 100%. Moreover, the pest or weed control at 125 g/ha in [5] was determined as 90%; in test [6] it was 90%; in [7], 100%; in test [8], 100%; in test [9] it was 100%; in [10], 80%.
`C#CCC1CC(=O)C(c2c(C)cc(-c3ccc(F)cc3)cc2C)C1=O` (centres unmarked) [Compound A1, 2-[4-(4-fluorophenyl)-2,6-dimethyl-phenyl]-4-prop-2-ynylcyclopentane-1,3-dione]: the pest or weed control at 250 g/ha was 100% in test [1], 80% in test [2] and 100% in [3]. Also, the pest or weed control at 125 g/ha amounted to 80% in [4]; 100% in [5]; 100% in [6]; 100% in test [7]; 100% in test [8]; 100% in test [9]. Also, the pest or weed control at 125 g/ha in test [10] stood at 100%; in [11], 100%; in test [12] it was 90%; in test [13] it was 100%; in [14], 90%. Further, the pest or weed control at 30 g/ha in test [5] came to 90%; in test [6], 100%; in test [7], 100%; in test [8] it was 80%; in test [9] it was 100%; in test [10], 90%.
